Assay results: patent US5840684A, “Glycopeptide antibiotic derivatives” (Eli Lilly and Company, priority 1995, dated 1998)
Values after ≈ are worked out from the molar mass of the structure shown.

What was measured:
[1] = tested on: Staphylococcus aureus S13E; assay type: cell-based
Method: (§1) The MIC's were determined using a standard broth micro-dilution assay.

[2] = tested on: Staphylococcus aureus SA1199B; assay type: cell-based
Method: as §1

[3] = tested on: Entercoccus faecium 180-1; assay: broth micro-dilution MIC; assay type: cell-based
Method: as §1

[4] = tested on: Staphylococcus aureus 446; assay: broth micro-dilution MIC; assay type: cell-based
Method: as §1

[5] = tested on: Staphylococcus aureus 447; assay: broth micro-dilution MIC; assay type: cell-based
Method: as §1

[6] = tested on: Staphylococcus aureus 489; assay: broth micro-dilution MIC; assay type: cell-based
Method: as §1

[7] = tested on: Staphylococcus aureus SA1199A; assay: broth micro-dilution MIC; assay type: cell-based
Method: as §1

[8] = tested on: Staphylococcus aureus SA1199; assay: broth micro-dilution MIC; assay type: cell-based
Method: as §1

[9] = tested on: Staphylococcus aureus X400; assay: broth micro-dilution MIC; assay type: cell-based
Method: as §1

[10] = tested on: Streptococcus pyogenes C203; assay: broth micro-dilution MIC; assay type: cell-based
Method: as §1

Entercoccus faecium 180 = assay: broth micro-dilution MIC; assay type: cell-based; conditions: Entercoccus faecium 180
Method: (§2) The formula I compounds have in vitro and in vivo activity against Gram-positive pathogenic bacteria. The MIC's were determined using a standard broth micro-dilution assay.

Entercoccus faecium 2041 = assay: broth micro-dilution MIC; assay type: cell-based; conditions: Entercoccus faecium 2041
Method: as §2

[11] = tested on: Haemophilus influenzae RD; assay: broth micro-dilution MIC; assay type: cell-based; conditions: Haemophilus influenzae RD
Method: as §2

[12] = tested on: Staphylococcus epidermidis 270; assay: broth micro-dilution MIC; assay type: cell-based
Method: as §2

[13] = tested on: Staphylococcus haemolyticus 105; assay: broth micro-dilution MIC; assay type: cell-based
Method: as §2

[14] = tested on: Staphylococcus haemolyticus 415; assay: broth micro-dilution MIC; assay type: cell-based
Method: as §2

[15] = tested on: Streptococcus pneumoniae P1; assay: broth micro-dilution MIC; assay type: cell-based
Method: as §2

[16] = tested on: vancomycin-resistant enterococci; assay: broth micro-dilution, mean geometric MIC; assay type: cell-based, Enterococcus faecium and Enterococcus faecalis; conditions: enterococci, 24-hour incubation
[17] = tested on: vancomycin-susceptible enterococci; assay: broth micro-dilution, mean geometric MIC; assay type: cell-based, Enterococcus faecium and Enterococcus faecalis; conditions: enterococci, 24-hour incubation
Entercoccus faecium 276 = assay: broth micro-dilution MIC; assay type: cell-based
Method: as §1

[18] = tested on: Staphylococcus aureus X778; assay: broth micro-dilution MIC; assay type: cell-based
Method: as §1

[19] = tested on: Enterococcus gallinarum 245; assay: broth micro-dilution MIC; assay type: cell-based; conditions: Enterococcus gallinarum 245
Method: as §2

SMILES	MIC [1] [µg/mL]	MIC [2] [µg/mL]	MIC [3] [µg/mL]	MIC [4] [µg/mL]	MIC [5] [µg/mL]	MIC [6] [µg/mL]	MIC [7] [µg/mL]	MIC [8] [µg/mL]	MIC [9] [µg/mL]	MIC [10] [µg/mL]	MIC (Entercoccus faecium 180) [µg/mL]	MIC (Entercoccus faecium 2041) [µg/mL]	MIC [11] [µg/mL]	MIC [13] [µg/mL]	MIC [14] [µg/mL]	MIC [15] [µg/mL]	mean geometric MIC, Vancomycin Resistant Strains [16] [µg/mL]	mean geometric MIC, Vancomycin Sensitive Strains [17] [µg/mL]	MIC [18] [µg/mL]	MIC [19] [µg/mL]	further results
CNC(CC(C)C)C(=O)NC1C(=O)NC(CC(N)=O)C(=O)NC2C(=O)NC3C(=O)NC(C(=O)NC(C(=O)O)c4cc(O)cc(O)c4-c4cc3ccc4O)C(OC3CC(C)(N)C(O)C(C)O3)c3ccc(c(Cl)c3)Oc3cc2cc(c3OC2OC(CO)C(O)C(O)C2OC2CC(C)(NCc3ccc(-c4ccc(O)cc4)cc3)C(O)C(C)O2)Oc2ccc(cc2Cl)C1O (centres unmarked) [Compound 20]	≤ 0.06	0.5 (≈ 0.282 µM)	≤ 0.06	0.5 (≈ 0.282 µM)	4 (≈ 2.25 µM)	0.5 (≈ 0.282 µM)	≤ 0.06	2 (≈ 1.13 µM)	0.5 (≈ 0.282 µM)	≤ 0.06	1 (≈ 0.563 µM)	≤ 0.06	8 (≈ 4.51 µM)	8 (≈ 4.51 µM)	4 (≈ 2.25 µM)	≤ 0.06	4.8	0.38			MIC [12]: 2 µg/mL (≈ 1.13 µM)
CNC(CC(C)C)C(=O)NC1C(=O)NC(CC(N)=O)C(=O)NC2C(=O)NC3C(=O)NC(C(=O)NC(C(=O)O)c4cc(O)cc(O)c4-c4cc3ccc4O)C(OC3CC(C)(N)C(O)C(C)O3)c3ccc(c(Cl)c3)Oc3cc2cc(c3OC2OC(CO)C(O)C(O)C2OC2CC(C)(NCc3ccc(Oc4ccccc4[N+](=O)[O-])cc3)C(O)C(C)O2)Oc2ccc(cc2Cl)C1O (centres unmarked) [Compound 70]	≤ 0.06	≤ 0.06	≤ 0.06		0.5 (≈ 0.275 µM)	≤ 0.06	≤ 0.06	≤ 0.06	≤ 0.06		0.5 (≈ 0.275 µM)	≤ 0.06	16 (≈ 8.79 µM)	2 (≈ 1.1 µM)	2 (≈ 1.1 µM)		2.0	0.092	≤ 0.06	2 (≈ 1.1 µM)	MIC (Entercoccus faecium 276): ≤ 0.06 µg/mL; MIC [12]: 0.25 µg/mL (≈ 0.137 µM)
CNC(CC(C)C)C(=O)NC1C(=O)NC(CC(N)=O)C(=O)NC2C(=O)NC3C(=O)NC(C(=O)NC(C(=O)O)c4cc(O)cc(O)c4-c4cc3ccc4O)C(OC3CC(C)(N)C(O)C(C)O3)c3ccc(c(Cl)c3)Oc3cc2cc(c3OC2OC(CO)C(O)C(O)C2OC2CC(C)(NCc3ccc(I)s3)C(O)C(C)O2)Oc2ccc(cc2Cl)C1O (centres unmarked) [Compound 74]	0	1 (≈ 0.551 µM)	≤ 0.06	4 (≈ 2.2 µM)	1 (≈ 0.551 µM)	≤ 0.06	≤ 0.06	≤ 0.06	≤ 0.06	≤ 0.06	0.5 (≈ 0.276 µM)	≤ 0.06	0.5 (≈ 0.276 µM)	4 (≈ 2.2 µM)	4 (≈ 2.2 µM)	≤ 0.06	11		≤ 0.06	≤ 0.06	MIC [12]: 0.5 µg/mL (≈ 0.276 µM)
CNC(CC(C)C)C(=O)NC1C(=O)NC(CC(N)=O)C(=O)NC2C(=O)NC3C(=O)NC(C(=O)NC(C(=O)O)c4cc(O)cc(O)c4-c4cc3ccc4O)C(OC3CC(C)(N)C(O)C(C)O3)c3ccc(c(Cl)c3)Oc3cc2cc(c3OC2OC(CO)C(O)C(O)C2OC2CC(C)(NCCc3ccc4ccccc4c3)C(O)C(C)O2)Oc2ccc(cc2Cl)C1O (centres unmarked) [Compound 179]			≤ 0.06			≤ 0.06	≤ 0.06	1 (≈ 0.573 µM)	≤ 0.06	≤ 0.06	≤ 0.06	≤ 0.06	4 (≈ 2.29 µM)	0.5 (≈ 0.286 µM)	1 (≈ 0.573 µM)	≤ 0.06	1.7	0.060	≤ 0.06	1 (≈ 0.573 µM)	MIC (Entercoccus faecium 276): ≤ 0.06 µg/mL
CNC(CC(C)C)C(=O)NC1C(=O)NC(CC(N)=O)C(=O)NC2C(=O)NC3C(=O)NC(C(=O)NC(C(=O)O)c4cc(O)cc(O)c4-c4cc3ccc4O)C(O)c3ccc(c(Cl)c3)Oc3cc2cc(c3OC2OC(CO)C(O)C(O)C2OC2CC(C)(NCc3ccc(-c4ccccc4)cc3)C(O)C(C)O2)Oc2ccc(cc2Cl)C1O (centres unmarked) [Compound 181]	≤ 0.06	≤ 0.06	≤ 0.06	≤ 0.06	≤ 0.06	≤ 0.06	≤ 0.06	≤ 0.06	≤ 0.06	≤ 0.06	4 (≈ 2.48 µM)		32 (≈ 19.8 µM)	0.25 (≈ 0.155 µM)	1 (≈ 0.619 µM)	≤ 0.06	8.0	0.060	≤ 0.06	≤ 0.06	MIC (Entercoccus faecium 276): 2 µg/mL (≈ 1.24 µM)
CNC(CC(C)C)C(=O)NC1C(=O)NC(CC(N)=O)C(=O)NC2C(=O)NC3C(=O)NC(C(=O)NC(C(=O)O)c4cc(O)cc(O)c4-c4cc3ccc4O)C(OC3CC(C)(N)C(O)C(C)O3)c3ccc(c(Cl)c3)Oc3cc2cc(c3OC2OC(CO)C(O)C(O)C2OC2CC(C)(NCCCCCCc3ccccc3)C(O)C(C)O2)Oc2ccc(cc2Cl)C1O (centres unmarked) [Compound 196]	1 (≈ 0.571 µM)	0.5 (≈ 0.285 µM)	≤ 0.06	0.5 (≈ 0.285 µM)	0.5 (≈ 0.285 µM)	1 (≈ 0.571 µM)	≤ 0.06	0.5 (≈ 0.285 µM)	0.5 (≈ 0.285 µM)	≤ 0.06	0.5 (≈ 0.285 µM)	≤ 0.06	32 (≈ 18.3 µM)	0.5 (≈ 0.285 µM)	1 (≈ 0.571 µM)	≤ 0.06	1.7	0.027	1 (≈ 0.571 µM)	1 (≈ 0.571 µM)	
C=CCCCOc1ccc(CNC2(C)CC(OC3C(Oc4c5cc6cc4Oc4ccc(cc4Cl)C(OC4CC(C)(N)C(O)C(C)O4)C4NC(=O)C(NC(=O)C6NC(=O)C(CC(N)=O)NC(=O)C(NC(=O)C(CC(C)C)NC)C(O)c6ccc(c(Cl)c6)O5)c5ccc(O)c(c5)-c5c(O)cc(O)cc5C(C(=O)O)NC4=O)OC(CO)C(O)C3O)OC(C)C2O)cc1 (centres unmarked) [Compound 226]	0.5 (≈ 0.283 µM)	1 (≈ 0.566 µM)	≤ 0.06	1 (≈ 0.566 µM)	0.5 (≈ 0.283 µM)	0.5 (≈ 0.283 µM)		1 (≈ 0.566 µM)		≤ 0.06	≤ 0.06	≤ 0.06	32 (≈ 18.1 µM)	2 (≈ 1.13 µM)	1 (≈ 0.566 µM)	≤ 0.06	1.6	0.041		1 (≈ 0.566 µM)	MIC [12]: 1 µg/mL (≈ 0.566 µM)
CNC(CC(C)C)C(=O)NC1C(=O)NC(CC(N)=O)C(=O)NC2C(=O)NC3C(=O)NC(C(=O)NC(C(=O)O)c4cc(O)cc(O)c4-c4cc3ccc4O)C(OC3CC(C)(N)C(O)C(C)O3)c3ccc(c(Cl)c3)Oc3cc2cc(c3OC2OC(CO)C(O)C(O)C2OC2CC(C)(NCc3ccc(-c4ccccc4C)c(C)c3)C(O)C(C)O2)Oc2ccc(cc2Cl)C1O (centres unmarked) [Compound 237]			≤ 0.06	2 (≈ 1.12 µM)	1 (≈ 0.56 µM)	0.5 (≈ 0.28 µM)	≤ 0.06	1 (≈ 0.56 µM)	1 (≈ 0.56 µM)	≤ 0.06		0.125 (≈ 0.07 µM)	8 (≈ 4.48 µM)	1 (≈ 0.56 µM)	1 (≈ 0.56 µM)	≤ 0.06	1.0	0.048	0.5 (≈ 0.28 µM)	1 (≈ 0.56 µM)	MIC (Entercoccus faecium 276): 1 µg/mL (≈ 0.56 µM); MIC [12]: 0.5 µg/mL (≈ 0.28 µM)
